From patent US20210134398A1, “Combinatorial Chemistry Computational System and Enhanced Selection Method” (Southern Methodist University, priority 2019, published 2021)
“Also recorded” adds a separate entry of the source.

Columns and labels:
[1] = molecular target: T1, Normal Human MDR1 P-glycoprotein (Homo sapiens, UniProt P08183); test: ATPase activity assay (basal and verapamil-stimulated), P-gp in nanodiscs; assay type: biochemical; settings: for Effect on stimulated ATPase / Stimulated ATPase: in the presence of verapamil; for Stimulated ATPase / Basal ATPase: ± standard deviation; for Effect on basal ATPase / Basal ATPase: no added transport substrate
T1 construct: made in house; host or cells: Pichia pastoris (P-gp); E. coli BL21 (DE3) (MSP1E3D1)
Description: To assess whether the observed discrepancies of compounds stimulating basal P-gp ATPase activity but not being transport substrates of the human pump in the cell culture assessments were due to the fact that these biochemical assays used a cysteineless variant of the mouse MDR3 P-glycoprotein, the experiments were repeated using normal human MDR1 P-gp. In order to stabilize the human protein for the activity assays, the protein was assembled into membrane nanodiscs as described herein.
(§1) P-glycoprotein Purification. Cysteine-less MDR3 and the human normal MDR1 P-glycoprotein was recombinantly expressed in the yeast Pichia pastoris essentially as in^45, 46 and used for assaying ATP hydrolysis and ATP binding to the protein in the presence of the 29-variants. Purification of the protein was performed as described^49 with small modifications resulting in highly enriched P-gp in mixed micelles containing dodecyl maltoside (DDM) and lysophosphatidyl choline^26.
Nanodisc assembly. Human P-gp in mixed detergent micelles obtained during protein purification, was reconstituted into nanodiscsas described in references^73, 74 with small modifications. […] The detergent was removed with Bio-Beads™ SM-2 Adsorbent Media (BioRad). Ni-NTA Agarose (Qiagen) chromatography was used to purify P-gp reconstituted nanodiscs using 6 bed volumes of start buffer (20% (v/v) glycerol, 50 mM Tris-CL pH 7.5 at 4° C., 50 mM NaCl), and 5 bed volumes of elution buffer (20% (v/v) glycerol, 50 mM Tris-Cl pH 7.5 at 4° C., 50 mM NaCl, 300 mM imidazole).
(§2) ATPase Activity Assays. ATP hydrolysis activity was measured using a coupled enzyme assay^72 as modified in reference^26.

[2] = molecular target: T2, cysteineless mouse P-glycoprotein (Mus musculus, UniProt P21447, C1070A/C1121A/C1223A/C133A/C427A/C638A/C669A/C713A/C952A); test: SL-ATP (spin-labeled ATP analog) binding titration by ESR; settings: for Maximum ATP binding: in the presence of the compound, ± standard deviation
T2 construct: made in house; host or cells: Pichia pastoris
Procedure: Effects of 29 variants on binding of an ATP-analog to purified P-glycoprotein. ATP binding in the presence of the 29 variants was assessed in titration assays using a spin-labeled analog of ATP, 2′,3′-SL-ATP (2′,3′-(2,2,5,5,-tetramethyl-3-pyrroline-1-oxyl-3-carboxylic acid ester) ATP; (2′,3′ indicates a rapid equilibrium of the ester bond between the C2′ and C3′ of the ribose moiety))^48-50, and electron spin resonance spectroscopy as described in^26. Due to the lower stability of the human P-glycoprotein in the extended times needed for these experiments, the cysteineless mouse protein was used here. The goal was to assess whether binding of the 29 variants to P-gp affected nucleotide binding to the protein.
ESR Measurements. ESR measurements were as described in^26. The amount of protein-bound spin-labeled (SL) adenine nucleotide was determined as the difference between the known total concentration of SL-ATP (2′,3′-(2,2,5,5,-tetramethyl-3-pyrroline-1-oxyl-3-carboxylic acid ester) —ATP^48) added and the free spin-labeled nucleotide (SL-ANP) observed in the experiment. Hyperbolic curve fitting of the results was performed using GraphPad Prism 7 to determine maximum binding and apparent affinity for the spin-labeled nucleotide. The equation used for the fitting the curves was […], where P1 corresponds to the maximum binding of SL-ANP (moles of SL-ANP bound per mole P-gp), and P2 equals the apparent dissociation constant for SL-ANP. To quantify the amount of free SL-ANP, standard curves were established where the signal amplitude of the high field signal of the ESR spectra of free SL-ANP in the absence of protein was correlated to the concentration of SL-ANP added. All ESR measurements were performed using a Bruker EMX 6/1 ESR spectrophotometer operating in X-band mode and equipped with a high sensitivity cavity. Spectra were acquired at a microwave frequency of 9.33 GHz, microwave power of 12.63 mW, 100 kHz modulation frequency and a resolution of 1024 points. The centerfield of the scan was at 3325 G and an area of 100 G was scanned. The peak to peak modulation amplitude was 1G and the time constant was set to 10.240 ms. The conversion time was 163.84 ms, resulting in a total time sweep of 167.772 s. The signal gain was adjusted for the SL-ATP concentrations in the different experiments.

[3] = molecular target: T3, Cysteineless Mouse MDR3 P-glycoprotein (Mus musculus, UniProt P21447, C1070A/C1121A/C1223A/C133A/C427A/C638A/C669A/C713A/C952A); test: ATPase activity assay (basal and verapamil-stimulated), purified P-gp in mixed micelles; assay type: biochemical; settings: for Effect on stimulated ATPase / Stimulated ATPase: in the presence of verapamil; for Stimulated ATPase / Basal ATPase: ± standard deviation; for Effect on basal ATPase / Basal ATPase: no added transport substrate
T3 construct: made in house; host or cells: Pichia pastoris
Procedure: Evaluation of mode of inhibition of P-glycoprotein by Group 1 and Group 2 variants of compound 29. To assess the mode of inhibition of P-gp by the novel variants of P-gp inhibitor 29, ATP hydrolysis by P-gp was evaluated in the presence or absence of the variants. […] Murine P-gp (MDR3) expressed in Pichia pastoris that had all naturally occurring cysteines replaced with alanine, was used^45, 46. It is widely assumed that the ATP hydrolytic rate of P-gp is stimulated in the presence of transport substrates when compared to ATP hydrolysis in the absence of transport substrates. Assays comparing these rates can therefore be useful not only in identifying inhibitors of P-gp catalyzed ATP hydrolysis, but also to potentially infer whether a compound might be a transport substrate if basal ATPase rates are stimulated by the addition of a compound.
as §1, §2

[4] = molecular target: T4, P-gp-catalyzed transport of calcein AM in DU145TXR cells (Homo sapiens, UniProt P08183); test: Calcein AM accumulation assay; assay type: cell-based; settings: without pre-incubation, compared to parental 29, 5 μM stated for Group 2
T4 construct: DU145 human prostate cancer cells^52 as well as the multidrug resistant sub-line, DU145TXR; endogenous in cells; host or cells: DU145TXR (paclitaxel-selected sub-line of human DU145 prostate cancer cells)
T4 sequence (P08183 whole entry): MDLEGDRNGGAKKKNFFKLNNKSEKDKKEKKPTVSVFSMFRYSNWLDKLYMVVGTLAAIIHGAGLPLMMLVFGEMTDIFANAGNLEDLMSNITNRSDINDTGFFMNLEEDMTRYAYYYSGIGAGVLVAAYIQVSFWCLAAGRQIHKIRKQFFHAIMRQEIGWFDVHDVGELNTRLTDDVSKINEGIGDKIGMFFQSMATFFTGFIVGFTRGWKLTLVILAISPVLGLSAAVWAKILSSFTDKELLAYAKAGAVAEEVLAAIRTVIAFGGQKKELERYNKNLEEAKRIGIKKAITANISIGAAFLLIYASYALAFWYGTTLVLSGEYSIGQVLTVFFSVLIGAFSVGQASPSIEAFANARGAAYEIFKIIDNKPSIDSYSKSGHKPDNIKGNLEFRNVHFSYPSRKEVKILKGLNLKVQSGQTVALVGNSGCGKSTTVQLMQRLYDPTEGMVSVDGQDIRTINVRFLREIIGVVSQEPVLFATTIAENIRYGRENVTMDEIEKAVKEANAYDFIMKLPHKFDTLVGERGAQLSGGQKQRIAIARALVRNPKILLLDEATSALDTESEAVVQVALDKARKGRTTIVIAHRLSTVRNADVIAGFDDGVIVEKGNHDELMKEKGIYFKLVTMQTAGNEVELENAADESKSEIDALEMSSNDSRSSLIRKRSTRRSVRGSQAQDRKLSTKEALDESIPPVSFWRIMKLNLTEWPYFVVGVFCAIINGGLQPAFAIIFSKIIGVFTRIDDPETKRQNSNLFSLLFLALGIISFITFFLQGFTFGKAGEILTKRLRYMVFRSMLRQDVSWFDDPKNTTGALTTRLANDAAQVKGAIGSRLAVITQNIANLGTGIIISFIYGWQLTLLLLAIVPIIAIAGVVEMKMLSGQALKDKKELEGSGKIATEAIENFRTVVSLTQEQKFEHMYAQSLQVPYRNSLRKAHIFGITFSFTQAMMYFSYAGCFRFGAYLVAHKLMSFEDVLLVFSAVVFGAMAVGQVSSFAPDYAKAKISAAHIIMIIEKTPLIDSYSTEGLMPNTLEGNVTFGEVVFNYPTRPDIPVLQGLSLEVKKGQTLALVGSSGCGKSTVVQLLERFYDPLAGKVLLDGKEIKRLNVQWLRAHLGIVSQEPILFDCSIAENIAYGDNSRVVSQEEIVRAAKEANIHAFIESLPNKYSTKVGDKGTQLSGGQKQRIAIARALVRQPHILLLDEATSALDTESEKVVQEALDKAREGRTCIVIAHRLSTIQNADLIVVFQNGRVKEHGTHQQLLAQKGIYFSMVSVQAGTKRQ

T1 sequence (P08183 whole entry): as above
T2 sequence (P21447 whole entry C133A/C427A/C638A/C669A/C713A/C952A/C1070A/C1121A/C1223A): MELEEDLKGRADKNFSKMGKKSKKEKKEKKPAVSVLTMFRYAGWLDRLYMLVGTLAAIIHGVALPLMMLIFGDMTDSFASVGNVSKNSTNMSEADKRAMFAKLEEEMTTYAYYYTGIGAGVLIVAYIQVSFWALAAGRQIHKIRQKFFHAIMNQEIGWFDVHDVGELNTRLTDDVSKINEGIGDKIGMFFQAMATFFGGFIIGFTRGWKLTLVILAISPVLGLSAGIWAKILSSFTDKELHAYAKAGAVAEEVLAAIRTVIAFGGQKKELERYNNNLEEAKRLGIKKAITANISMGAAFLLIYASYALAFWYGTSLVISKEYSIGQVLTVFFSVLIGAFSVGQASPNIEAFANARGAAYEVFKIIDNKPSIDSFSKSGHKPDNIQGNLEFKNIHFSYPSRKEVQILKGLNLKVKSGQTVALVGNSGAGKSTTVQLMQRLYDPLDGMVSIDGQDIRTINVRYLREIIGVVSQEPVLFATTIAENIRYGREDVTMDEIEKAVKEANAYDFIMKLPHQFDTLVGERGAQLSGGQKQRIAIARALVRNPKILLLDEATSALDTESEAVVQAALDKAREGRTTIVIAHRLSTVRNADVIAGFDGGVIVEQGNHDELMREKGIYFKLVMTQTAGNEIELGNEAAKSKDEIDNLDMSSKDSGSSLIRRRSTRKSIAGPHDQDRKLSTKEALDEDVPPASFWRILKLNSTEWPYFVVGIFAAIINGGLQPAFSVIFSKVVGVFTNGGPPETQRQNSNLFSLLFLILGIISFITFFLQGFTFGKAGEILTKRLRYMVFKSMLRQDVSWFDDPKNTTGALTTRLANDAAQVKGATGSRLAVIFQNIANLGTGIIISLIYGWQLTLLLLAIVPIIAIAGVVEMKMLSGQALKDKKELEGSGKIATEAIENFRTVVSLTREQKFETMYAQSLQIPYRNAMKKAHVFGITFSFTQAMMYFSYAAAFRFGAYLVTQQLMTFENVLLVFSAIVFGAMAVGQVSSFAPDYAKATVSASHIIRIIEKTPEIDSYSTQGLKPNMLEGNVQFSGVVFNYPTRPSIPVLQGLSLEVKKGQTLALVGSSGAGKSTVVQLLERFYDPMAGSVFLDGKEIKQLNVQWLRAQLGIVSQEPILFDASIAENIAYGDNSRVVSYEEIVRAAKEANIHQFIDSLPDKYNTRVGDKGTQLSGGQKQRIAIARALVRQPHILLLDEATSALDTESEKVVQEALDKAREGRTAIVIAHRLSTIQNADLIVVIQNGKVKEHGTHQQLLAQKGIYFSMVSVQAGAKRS
T3 sequence (P21447 whole entry C133A/C427A/C638A/C669A/C713A/C952A/C1070A/C1121A/C1223A): as above

SMILES | Effect on stimulated ATPase [1] | Stimulated ATPase [1] | Effect on basal ATPase [1] | Basal ATPase [1] | Effect on SL-ANP binding [2] | Stimulated ATPase [3] | Basal ATPase [3] | Calcein accumulation in DU145TXR (in words) [4] | Maximum ATP binding [2] | further results
Cc1cc(C)c(-c2cc(NC(=O)CSCC(=O)NC34CC5CC(CC(C5)C3)C4)n(-c3ccccc3)n2)cc1C [29-278, 2-({[(adamantan-1-yl)carbamoyl]methyl}sulfanyl)-N-[1-phenyl-3-(2,4,5-trimethylphenyl)-1H-pyrazol-5-yl]acetamide] | inhibitor | 63 ± 6 % of DMSO | inhibitor | 74 ± 6 % of DMSO | yes | 41 ± 7 % of DMSO | 78 ± 4 % of DMSO | less calcein accumulation than the parental compound |  | Maximum ATP binding ([2]; listed as 278): about 1 mol SL-ANP bound/mol P-gp; Maximum ATP binding ([2]; listed as SMU29-278): 1.3 ± 0.1 mol SL-ANP bound/mol P-gp; Effect on stimulated ATPase ([3]; listed as 278): inhibited verapamil-stimulated ATPase activity; Effect on stimulated ATPase ([3]; listed as SMU29-278): inhibitor; Effect on basal ATPase ([3]; listed as 278): inhibited; Effect on basal ATPase ([3]; listed as SMU29-278): inhibitor
Cc1cc(C)c(-c2cc(NC(=O)CSCC(=O)NC(c3ccccc3)c3ccccc3)n(-c3ccccc3)n2)cc1C [29-280, N-(diphenylmethyl)-2-[({[1-phenyl-3-(2,4,5-trimethylphenyl)-1H-pyrazol-5-yl]carbamoyl)methyl}sulfanyl]acetamide] | inhibitor | 54 ± 7 % of DMSO | inhibitor | 76 ± 8 % of DMSO | marginally | 116 ± 4 % of DMSO | 148 ± 4 % of DMSO | less calcein accumulation than the parental compound | 1.6 ± 0.1 mol SL-ANP bound/mol P-gp | Effect on stimulated ATPase ([3]; listed as 280): only a slight stimulation; Effect on stimulated ATPase ([3]; listed as SMU29-280): stimulator; Effect on basal ATPase ([3]; listed as SMU29-280): stimulator
Cc1cc(C)c(-c2cc(NC(=O)CSCC(=O)NCc3ccc(F)cc3)n(-c3ccccc3)n2)cc1C [29-286] | inhibitor | 59 ± 4 % of DMSO | none | 95 ± 3 % of DMSO | no | 98 ± 2 % of DMSO | 143 ± 32 % of DMSO | comparable to 29 | 1.9 ± 0.1 mol SL-ANP bound/mol P-gp | Effect on stimulated ATPase ([3]; listed as 286): no significant effect; also recorded: little effect; Effect on stimulated ATPase ([3]; listed as SMU29-286): none; Effect on basal ATPase ([3]; listed as 286): only marginally or with no statistical significance; Effect on basal ATPase ([3]; listed as SMU29-286): none
Cc1cc(C)c(-c2cc(NC(=O)CSc3nnc4c(n3)[nH]c3ccccc34)n(-c3ccccc3)n2)cc1C [29-541, 2-((5H-[1,2,4]triazino[5,6-b]indol-3-yl)thio)-N-(1-phenyl-3-(2,4,5-trimethylphenyl)-1H-pyrazol-5-yl)acetamide] | inhibitor | 66 ± 6 % of DMSO | none | 87 ± 9 % of DMSO | no | 68 ± 7 % of DMSO | 101 ± 12 % of DMSO |  | 1.8 ± 0.1 mol SL-ANP bound/mol P-gp | Effect on stimulated ATPase ([3]; listed as 541): inhibited activity similar to parental compound 29; also recorded: inhibited verapamil-stimulated ATPase activity; Effect on stimulated ATPase ([3]; listed as SMU29-541): inhibitor; Effect on basal ATPase ([3]; listed as 541): did not significantly affect; also recorded: did not activate; Effect on basal ATPase ([3]; listed as SMU29-541): none; Calcein accumulation in DU145TXR (in words) ([4]; listed as 541): performed relatively equally to 29; also recorded: performed similar to the parental compound
Cc1cc(C)c(-c2cc(NC(=O)CSc3cccc(NC(=O)c4cncc(Br)c4)c3)n(-c3ccccc3)n2)cc1C [29-551, 5-bromo-N-(3-((2-oxo-2-((1-phenyl-3-(2,4,5-trimethylphenyl)-1H-pyrazol-5-yl)amino)ethyl)thio)phenyl)nicotinamide] | inhibitor | 27 ± 1 % of DMSO | inhibitor | 72 ± 9 % of DMSO | no | 62 ± 5 % of DMSO | 150 ± 6 % of DMSO | marginally higher calcein accumulation than parental compound 29 | 1.7 ± 0.1 mol SL-ANP bound/mol P-gp | Effect on stimulated ATPase ([3]; listed as 551): inhibited activity similar to parental compound 29; also recorded: inhibited verapamil-stimulated ATPase activity; Effect on stimulated ATPase ([3]; listed as SMU29-551): inhibitor; Effect on basal ATPase ([3]; listed as 551): stimulated basal ATPase activity; Effect on basal ATPase ([3]; listed as SMU29-551): stimulator
